In US20040009602A1, “DNA modifying molecules and methods of use thereof” (The Government of the U.S.A. as represented by the …, priority 2002, published 2004):

Tested on: HPRT gene
Experiment: Hprt mutation assay in synchronized CHO cells
Format: cell-based, Chinese Hamster
Protocol: Synchronization protocol: Chinese Hamster Ovary (CHO) AA8 cells (ATCC) were prepared as described above for the HPRT knockout assay. The cells were synchronized in G0/G1 by a variation of the method described by Sawai et al. (96). Briefly, cells were plated at subconfluent levels and the next day the medium changed to DMEM with 2% FBS and 2% DMSO. After 48 h the cells were washed (˜85% G0/G1 cells by FACS analysis) and either electroporated or fed with complete medium (for G1 phase experiments), or incubated with complete medium containing 100 μM mimosine for 16 hrs to block them in early S phase (˜90% early S cells). See Orren et al. for complete details on this procedure (49). After 16 hrs the cells were released from the mimosine block by feeding with DMEM/10% FBS. TFO electroporation, Psoralen treatment, and Hprt mutation assay: Cells were suspended at 10^7/mL and mixed with TFO at 5 μM. The cells were electroporated (BioRad), followed by incubation at room temperature for 3 hrs, and a 3 min exposure in a Rayonet chamber to UVA light at 1.8 J/cm^2. […] Cells treated with free psoralen were incubated with 5 μM psoralen for 30 min, followed by UVA treatment. The cells were passaged and then exposed to thioguanine (TG) selection (43).

## O=c1ccc2cc3ccoc3cc2o1 [psoralen]
5 μM free psoralen 30 min, UVA, different phases of cell cycle, background 0.001%
  frequency of thioguanine resistant colonies: 0.004-0.005%
Free psoralen/UVA
  cell cycle variability of mutation frequency: essentially unchanged across the cell cycle
